Laboratory results: patent publication US10287259B2, “Selenazolidine and thiazolidine compounds for treating cancer and other diseases” (The Penn State Research Foundation, priority 2016, dated 2019)

Key:
Type in all cases: cell-based
Panc-1 cells [1] = assay: MTT cell viability assay, Panc-1
Method: (§1) MTT (3-(4,5-dimethylthiazol-2-yl)-2,5-diphenyltetrazolium) assay was performed to determine the effect of AS-10 on cancer cell viability (Plano et al., 2016, J. Med. Chem. 1946-1959; Alcolea et al., 2012, Eur. J. Med. Chem. 113:134-144; Kumar et al., 2014, Eur. J. Med. Chem. 81:267-276). Briefly, 3×10^3 cells were treated with different concentrations of AS-10 in triplicate in a 96-well plate for different time points. MTT solution (20 μL of 5.0 mg/mL solution) was added to each well, three hours prior to termination time point and incubated at 37° C. Resultant formazan crystals, at termination time point, were dissolved in 50 μL DMSO. The plate was subjected to a 96-well multiscanner (Dynex Technologies, MRX Revelation; Chantilly, Va., USA) for measuring the optical densities at 570 nm and 630 nm. IC50 values were determined by performing non-linear regression using Graphpad Prism software.
To test the anti-cancer activity of AS-10 in pancreatic cancer (PC) cell lines, a MTT assay was performed. PC cell lines, Panc-1 and BxPC3, were treated with AS-10 at different doses at different time points (24, 48, and 72 h). Resulting cells were subjected to MTT cell viability assay. […] Panc-1 cells were treated with different doses of AS-10 for 48 h. After 48 h, live cells were counted and plated in a new petri dish. Cells were allowed to form colonies for 17 days. At the end of 17 days the colonies were counted and compared to the untreated cells.

Lung cancer cells (A549) = assay: MTT cell viability assay, A549; details: A549, 48 h (FIG. 5C); acetate functionality removed
Method: as §1

pancreatic cancer cells = assay: MTT cell viability assay, pancreatic cancer (PC) cells; details: screening
Method: as §1

LNCaP cells = assay: MTT cell viability test, LNCaP
Method: as §1

Panc-1 cells [2] = assay: Live/dead assay with calcein-AM and ethidium bromide; details: Panc-1, 48 h; AS-10 2.5 μM, gemcitabine 50 μM
Method: To determine the dead cell population, we used LIVE/DEAD Viability/Cytotoxicity Kit (L3224, Life technologies, USA). Panc-1 cells were treated with either DMSO, gemcitabine (50 μM), or AS-10 (2.5 μM) or in combination for 48 h. Live and dead cells were determined by subjecting treated cells to LIVE/DEAD Viability/Cytotoxicity Kit (Plano et al., 2016, J. Med. Chem. 1946-1959). […] While ethidium homodimer-1 can only enter cells who have lost their plasma membrane integrity or dead cells and fluorescents red. Stained cells were visualized using a fluorescence microscope (Zeiss—Axio Scope.A1) with a 20× objective lens. Percentage values of live and dead cells were calculated.

Panc-1 cells [3] = assay: Western blot analysis of Panc-1 lysates; details: Panc-1, 48 h; low dose AS-10 2.5 μM, gemcitabine 50 μM
Method: Whole-cell lysates were made by subjecting AS-10 treated Panc-1 cells to RIPA lysis buffer (Thermo Scientific, USA) containing protease (Roche, USA) and phosphatase inhibitor cocktails (Sigma-Aldrich, USA) (Plano et al., 2016, J. Med. Chem. 1946-1959). Lysates were spun at 15,000 rpm for 10 minutes. Resulting supernatant was stored at −80° C. until use. NuPAGE gel 4-12% (Life Technologies, Carlsbad, Calif.) was used to resolve the lysates, followed by electro-transfer to PVDF membrane. After the transfer membrane was blocked with 5% non-fat milk and probed with different antibodies. Protein of interest were detected by using enhanced Chemiluminescent reagent (Life technologies, USA). Blots were stripped using Restore Western blot stripping buffer (Thermo Scientific, USA) to save time and samples.

Panc-1 cells [4] = assay: Muse Live/dead Annexin V assay; details: Panc-1, 48 h; AS-10 2.5 μM, gemcitabine 50 μM
Method: Muse Annexin V & Dead Cell kit was used to determine the apoptosis cells in AS-10 treated Panc-1 cells (Plano et al., 2016, J. Med. Chem. 1946-1959). The Muse Annexin V & Dead cell assay contains Annexin V to detect phosphatidylserine (PS) on the outer surface of cells. The kit also contains a dead cell marker, 7-amino-actinomycin D (7-AAD). […] In brief, Panc-1 (1.5×10^5) cells were treated with a given dose of AS-10 or DMSO for appropriate time (0, 6, 12, 24, 36, or 48 h). Both floating cells as well as adherent cells were collected and subjected for Annexin V staining using Muse Annexin V & Dead Cell kit with Muse cell analyzer (EMD Millipore, Billerica, Mass., USA). The obtained data were analyzed using Muse 1.4 software.

Compound: CC(=O)Oc1ccccc1C(=O)/N=C1\SCCN1C(=O)c1ccccc1OC(C)=O [ASD-123, 2-((3-(2-acetoxybenzoyl)-1,3-thiazolidin-2-ylidene)carbamoyl)phenyl acetate]
- potency compared to AS-10 (Panc-1 cells [1]; Panc-1, 48 h (FIG. 5B), Se replaced by S): significant loss in the potency

Compound: O=C(/N=C1\[Se]CCN1C(=O)c1ccccc1)c1ccccc1 [ASD-171, N-(3-benzoyl-1,3-selenazolidin-2-ylidene)benzamide]
- potency compared to AS-10 (Lung cancer cells (A549)): significant loss in the potency

Compound: CC(=O)Oc1ccccc1C(=O)O [aspirin, reference compound]
- effect on PC cell lines at doses similar to AS-10 (pancreatic cancer cells): did not have any effects
- EC50 range, growth inhibition (comparison) (LNCaP cells): millimolar range

Compound: Nc1ccn([C@@H]2O[C@H](CO)[C@@H](O)C2(F)F)c(=O)n1 [gemcitabine, reference compound]
- dead cells (Panc-1 cells [2]): ~10%
- PARP cleavage (Panc-1 cells [3]): no effect on PARP cleavage
- response of Panc-1 cells to treatment (Panc-1 cells [1]; highest tested dose 500 μM, 48 h): resistant
- total apoptotic cells (Panc-1 cells [4]): ~25%
